In article PMC3867986 (ACS medicinal chemistry letters, 2013):

Tests used:
[1] = Chemical stability; details: long-term storage, HPLC analysis
[2] = molecular target: BirA (biotin protein ligase) (Mycobacterium tuberculosis, UniProt I6YFP0); type: binding; details: direct stoichiometric titration of BirA, duplicate
Chain of BirA (biotin protein ligase) (I6YFP0 whole entry, looked up): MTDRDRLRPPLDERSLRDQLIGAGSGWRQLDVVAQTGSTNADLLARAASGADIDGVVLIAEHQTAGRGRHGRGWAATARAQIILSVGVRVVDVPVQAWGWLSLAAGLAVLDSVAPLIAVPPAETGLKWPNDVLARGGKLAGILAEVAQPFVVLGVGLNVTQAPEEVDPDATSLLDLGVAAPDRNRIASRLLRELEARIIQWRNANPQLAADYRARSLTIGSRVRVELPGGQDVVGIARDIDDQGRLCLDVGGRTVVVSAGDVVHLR

Row | SMILES | chemical stability [1] | ΔH [2]
1 | CCN(CC)CC.Nc1ncnc2c1ncn2[C@@H]1O[C@H](CCS(=O)(=O)NC(=O)CCCC[C@@H]2SC[C@@H]3NC(=O)N[C@@H]32)[C@@H](O)[C@H]1O [Compound 10] | no degradation upon long-term storage | –
2 | CCN(CC)CC.Nc1nccc2c1ncn2[C@@H]1O[C@H](COS(=O)(=O)NC(=O)CCCC[C@@H]2SC[C@@H]3NC(=O)N[C@@H]32)[C@@H](O)[C@H]1O [Compound 11] | – | -21.2 kcal/mol
3 | CC(C)(C)C#Cc1nc(N)c2ncn([C@@H]3O[C@H](COS(=O)(=O)NC(=O)CCCC[C@@H]4SC[C@@H]5NC(=O)N[C@@H]54)[C@@H](O)[C@H]3O)c2n1.CCN(CC)CC [Compound 13] | – | -13.5 kcal/mol
